Reference: patent publication US9187472B2 (AbbVie Inc., priority 2012, dated 2015)

Legend:
[1] = biological target: NAMPT (human, recombinant, C-terminally His-tagged) (Homo sapiens, UniProt P43490); assay: Time-Resolved Fluorescence Resonance Energy Transfer (TR-FRET) Binding Assay of NAMPT; conditions: without substrates; 6.8 nM NAMPT, 200 nM probe, 3 hours equilibration
Summary of the method: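 Probe displacement by compound was measured with 6.8 nM NAMPT, 200 nM Oregon Green 488-conjugated nicotinamide-competitive inhibitor probe and 1 nM Tb-anti-His antibody in 50 mM HEPES pH 7.5, 100 mM NaCl, 10 mM MgCl2, 1 mM DTT, 1% glycerol, 2% DMSO (final). After 3 h at room temperature, TR-FRET was read; IC50 from four-parameter logistic fit.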

NAMPT = NAMPT (Homo sapiens, UniProt P43490); assay: TR-FRET Binding Assay of NAMPT with PRPP; conditions: with 200 μM PRPP and 2.5 mM ATP; 2 nM NAMPT, 2 nM probe, 16 hours equilibration
Summary of the method: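 Run in the presence of substrates (200 μM PRPP, 2.5 mM ATP) with final 2 nM NAMPT, 2 nM probe, 1 nM Tb-anti-His antibody and 2% DMSO. Mixtures equilibrated 16 h before TR-FRET measurement so test compounds could be enzymatically modified.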

PC3 cells = assay: NAMPT Cell Proliferation Assay; type: cell-based; conditions: Homo sapiens, PC-3, 120 h, 5 days incubation, cell viability by Cell Titer Glo
Summary of the method: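 Following overnight attachment in RPMI with 10% heat-inactivated FBS, PC3 cells at 500 per well receive compounds spanning 10 μM down to 1×10^−5 μM. Growth is assessed by luminescent viability read after 5 days.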

Sequence of NAMPT (P43490 whole entry): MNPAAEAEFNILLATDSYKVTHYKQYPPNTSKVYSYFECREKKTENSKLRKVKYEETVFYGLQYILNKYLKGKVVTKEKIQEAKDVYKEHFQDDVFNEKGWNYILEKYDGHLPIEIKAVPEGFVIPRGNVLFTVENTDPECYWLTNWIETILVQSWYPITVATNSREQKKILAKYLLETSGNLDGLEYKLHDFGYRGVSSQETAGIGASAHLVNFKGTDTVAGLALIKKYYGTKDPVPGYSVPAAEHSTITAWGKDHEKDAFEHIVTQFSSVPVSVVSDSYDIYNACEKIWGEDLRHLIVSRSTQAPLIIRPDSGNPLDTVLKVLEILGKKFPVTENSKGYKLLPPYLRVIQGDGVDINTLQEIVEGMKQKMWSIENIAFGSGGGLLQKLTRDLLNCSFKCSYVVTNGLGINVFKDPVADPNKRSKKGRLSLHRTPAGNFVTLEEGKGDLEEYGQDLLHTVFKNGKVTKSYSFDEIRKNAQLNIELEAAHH
Sequence of NAMPT (human, recombinant, C-terminally His-tagged) (P43490 whole entry): as above

## O=C(NCc1ccn2ccnc2c1)c1cnc(C2CCN(C(=O)c3ccccc3)CC2)s1 [Example 545, 2-(1-benzoylpiperidin-4-yl)-N-(imidazo[1,2-a]pyridin-7-ylmethyl)-1,3-thiazole-5-carboxamide]
[1]
  IC50: 109 nM
NAMPT
  IC50: 0.403 nM
PC3 cells
  IC50: 28.7 nM

## CCCn1cc(-c2ccc(NC(=O)NCc3ccc4nccn4c3)cc2)cn1 [Example 360, 1-(imidazo[1,2-a]pyridin-6-ylmethyl)-3-[4-(1-propyl-1H-pyrazol-4-yl)phenyl]urea]
[1]
  IC50: 291 nM
NAMPT
  IC50: 0.717 nM
PC3 cells
  IC50: 663 nM

## CC(C)C(C)C(=O)N1CCC(c2ccc(C(=O)NCc3ccn4ccnc4c3)cc2)C1 (stereo not drawn) [Example 615, 4-[1-(2,3-dimethylbutanoyl)pyrrolidin-3-yl]-N-(imidazo[1,2-a]pyridin-7-ylmethyl)benzamide]
[1]
  IC50: 544 nM
NAMPT
  IC50: 0.79 nM
PC3 cells
  IC50: 18.8 nM

## CC(C)(C)OC(=O)N1CCC(c2ccc(C(=O)Nc3ccc4nccn4c3)cc2)CC1 [Example 323, tert-butyl 4-[4-(imidazo[1,2-a]pyridin-6-ylcarbamoyl)phenyl]piperidine-1-carboxylate]
[1]
  IC50: 1400 nM
NAMPT
  IC50: 0.232 nM
PC3 cells
  IC50: 175 nM

## Cn1cccc1C(=O)N1CCC(c2ccc(C(=O)NCc3ccn4ccnc4c3)cc2)C1 (stereo not drawn) [Example 606, N-(imidazo[1,2-a]pyridin-7-ylmethyl)-4-{1-[(1-methyl-1H-pyrrol-2-yl)carbonyl]pyrrolidin-3-yl}benzamide]
[1]
  IC50: 281 nM
NAMPT
  IC50: 0.169 nM
PC3 cells
  IC50: 34.8 nM

## O=C(NCc1ccn2ccnc2c1)Nc1ccc(C2CCN(C(=O)CC3CCOCC3)C2)cc1 (stereo not drawn) [Example 391, 1-(imidazo[1,2-a]pyridin-7-ylmethyl)-3-{4-[1-(tetrahydro-2H-pyran-4-ylacetyl)pyrrolidin-3-yl]phenyl}urea]
[1]
  IC50: 171 nM
NAMPT
  IC50: 0.227 nM
PC3 cells
  IC50: 78.4 nM

## COCCC(=O)N(CC1CCOC1)c1ncc(C(=O)NCc2ccc3nccn3c2)s1 (stereo not drawn) [Example 139, N-(imidazo[1,2-a]pyridin-6-ylmethyl)-2-[(3-methoxypropanoyl)(tetrahydrofuran-3-ylmethyl)amino]-1,3-thiazole-5-carboxamide]
[1]
  IC50: 582 nM
NAMPT
  IC50: 0.173 nM
PC3 cells
  IC50: 12.2 nM

## O=C(NCc1ccn2ccnc2c1)c1cnc(N2C(=O)OC[C@H]2COCc2ccccc2)s1 [Example 187, 2-{(4R)-4-[(benzyloxy)methyl]-2-oxo-1,3-oxazolidin-3-yl}-N-(imidazo[1,2-a]pyridin-7-ylmethyl)-1,3-thiazole-5-carboxamide]
[1]
  IC50: 549 nM
NAMPT
  IC50: 0.172 nM
PC3 cells
  IC50: 34.1 nM

## O=C(Nc1ccc(C2=CCN(C(=O)CC3CCOC3)CC2)cc1)Nc1ccc2nccn2c1 (stereo not drawn) [Example 28, 1-imidazo[1,2-a]pyridin-6-yl-3-{4-[1-(tetrahydrofuran-3-ylacetyl)-1,2,3,6-tetrahydropyridin-4-yl]phenyl}urea]
[1]
  IC50: 152 nM
NAMPT
  IC50: 0.19 nM
PC3 cells
  IC50: 14.2 nM

## O=C(Nc1ccc(C(=O)NCC2CCOCC2)cc1)Nc1ccc2nccn2c1 [Example 22]
[1]
  IC50: 399 nM
NAMPT
  IC50: 0.277 nM
PC3 cells
  IC50: 142 nM

## O=C(NCc1ccn2ccnc2c1)Nc1ccc(C2=CCN(C(=O)C3CCCO3)CC2)cc1F (stereo not drawn) [Example 307, 1-{2-fluoro-4-[1-(tetrahydrofuran-2-ylcarbonyl)-1,2,3,6-tetrahydropyridin-4-yl]phenyl}-3-(imidazo[1,2-a]pyridin-7-ylmethyl)urea]
[1]
  IC50: 50.8 nM
NAMPT
  IC50: 0.169 nM
PC3 cells
  IC50: 13.6 nM

## CC(C)CCNC(=O)c1ccc(C(=O)NCc2ccc3nccn3c2)cc1 [Example 358, N-(imidazo[1,2-a]pyridin-6-ylmethyl)-N′-(3-methylbutyl)benzene-1,4-dicarboxamide]
[1]
  IC50: 1840 nM
NAMPT
  IC50: 2.19 nM
PC3 cells
  IC50: 2260 nM

## O=C(NCc1ccn2ccnc2c1)c1ccc(OC2CCN(C(=O)c3ccccc3)CC2)cc1 [Example 415, 4-[(1-benzoylpiperidin-4-yl)oxy]-N-(imidazo[1,2-a]pyridin-7-ylmethyl)benzamide]
[1]
  IC50: 1620 nM
NAMPT
  IC50: 0.246 nM
PC3 cells
  IC50: 234 nM

## O=C(NC1(c2ccc(C(=O)NCc3ccn4ccnc4c3)s2)CCC1)c1ccccc1 [Example 471, 5-[1-(benzoylamino)cyclobutyl]-N-(imidazo[1,2-a]pyridin-7-ylmethyl)thiophene-2-carboxamide]
[1]
  IC50: 3440 nM
NAMPT
  IC50: 0.471 nM
PC3 cells
  IC50: 6510 nM

## O=C(NCc1ccn2ccnc2c1)c1cnc(C2CCN(S(=O)(=O)c3ccccc3)C2)s1 (stereo not drawn) [Example 752, N-(imidazo[1,2-a]pyridin-7-ylmethyl)-2-[1-(phenylsulfonyl)pyrrolidin-3-yl]-1,3-thiazole-5-carboxamide]
[1]
  IC50: 5190 nM
NAMPT
  IC50: 0.77 nM
PC3 cells
  IC50: 6660 nM

## CC(C)CCC(=O)Nc1ccc(C(=O)NCc2ccn3ccnc3c2)cc1 [Example 213, N-(imidazo[1,2-a]pyridin-7-ylmethyl)-4-[(4-methylpentanoyl)amino]benzamide]
[1]
  IC50: 116 nM
NAMPT
  IC50: 0.271 nM
PC3 cells
  IC50: 39.7 nM

## O=C(NCc1ccn2ccnc2c1)c1ccc(C2CCN(C(=O)C3CCCC3)CC2)cc1 [Example 515, 4-[1-(cyclopentylcarbonyl)piperidin-4-yl]-N-(imidazo[1,2-a]pyridin-7-ylmethyl)benzamide]
[1]
  IC50: 180 nM
NAMPT
  IC50: 0.268 nM
PC3 cells
  IC50: 15.8 nM

## CC(C)OCC1CN(c2ncc(C(=O)NCc3ccn4ccnc4c3)s2)C(=O)O1 (stereo not drawn) [Example 249, N-(imidazo[1,2-a]pyridin-7-ylmethyl)-2-{2-oxo-5-[(propan-2-yloxy)methyl]-1,3-oxazolidin-3-yl}-1,3-thiazole-5-carboxamide]
[1]
  IC50: 817 nM
NAMPT
  IC50: 0.72 nM
PC3 cells
  IC50: 66.5 nM

## O=C(NCCCCC1CCN(C(=O)C2CCCC2)CC1)Nc1ccc2nccn2c1 [Example 68, 1-{4-[1-(cyclopentylcarbonyl)piperidin-4-yl]butyl}-3-imidazo[1,2-a]pyridin-6-ylurea]
[1]
  IC50: 386 nM
NAMPT
  IC50: 0.476 nM
PC3 cells
  IC50: 53.8 nM

## O=C(NCc1ccn2ccnc2c1)c1ccc(C2CN(C(=O)c3cccc(C(F)(F)F)c3)C2)cc1 [Example 671, N-(imidazo[1,2-a]pyridin-7-ylmethyl)-4-{1-[3-(trifluoromethyl)benzoyl]azetidin-3-yl}benzamide]
[1]
  IC50: 611 nM
NAMPT
  IC50: 1.06 nM
PC3 cells
  IC50: 684 nM

## CC(C)(C)OC(=O)N1CC=C(c2ccc(C(=O)NCc3ccc4nccn4c3)cc2)CC1 [Example 83, tert-butyl 4-{4-[(imidazo[1,2-a]pyridin-6-ylmethyl)carbamoyl]phenyl}-3,6-dihydropyridine-1(2H)-carboxylate]
[1]
  IC50: 899 nM
NAMPT
  IC50: 2.3 nM
PC3 cells
  IC50: 24.3 nM

## COCCn1cc(-c2ccc(C(=O)NCc3ccn4ccnc4c3)s2)cn1 [Example 269, N-(imidazo[1,2-a]pyridin-7-ylmethyl)-5-[1-(2-methoxyethyl)-1H-pyrazol-4-yl]thiophene-2-carboxamide]
[1]
  IC50: 41.2 nM
NAMPT
  IC50: 0.169 nM
PC3 cells
  IC50: 15.1 nM

## CC(C)(C)OC(=O)N1CC=C(c2ccc(NC(=O)Nc3ccc4nccn4c3)cc2)CC1 [Example 25, tert-butyl 4-{4-[(imidazo[1,2-a]pyridin-6-ylcarbamoyl)amino]phenyl}-3,6-dihydropyridine-1(2H)-carboxylate]
[1]
  IC50: 508 nM
NAMPT
  IC50: 0.714 nM
PC3 cells
  IC50: 146 nM
